{"source": "ChEMBL document CHEMBL2169878", "about": "(J Med Chem, 2012)", "key": {"Heart [1]": {"tested_on": "Heart", "test": "Cardiotoxicity against Sprague-Dawley rat Langendorff perfused heart assessed as heart rate at 1 uM by electrophysiological analysis (reference value: 236.68 7.83 bpm)", "type": "toxicity, tissue-based"}, "Heart [2]": {"tested_on": "Heart", "test": "Cardiotoxicity against Sprague-Dawley rat Langendorff perfused heart assessed as cycle length time at 1 uM by electrophysiological analysis (reference value: 258.62 8.87 ms)", "type": "toxicity, tissue-based"}, "Salmonella typhimurium": {"tested_on": "Salmonella typhimurium", "test": "Mutagenicity against Salmonella typhimurium TA100 assessed as revertants at 24 uM incubated for 90 mins followed by drug washout measured after 2 days relative to positive control", "type": "toxicity, organism-based", "settings": "salmonella enterica subsp. enterica serovar typhimurium"}, "[3]": {"test": "(§1) Cardiotoxicity against Sprague-Dawley rat Langendorff perfused heart assessed as reduction in left ventricular pressure by electrophysiological analysis", "type": "toxicity, tissue-based", "settings": "Sprague-Dawley, Langendorff perfused heart"}, "Heart [4]": {"tested_on": "Heart", "test": "as §1", "type": "toxicity, tissue-based"}, "Plasmodium falciparum": {"tested_on": "Plasmodium falciparum", "test": "Antiplasmodial activity against chloroquine-sensitive Plasmodium falciparum NF54 infected in human erythrocytes assessed as inhibition of [3H]hypoxanthine incorporation incubated for 48 hrs prior to [3H]hypoxanthine addition measured after 48 hrs by liquid scintillation counting", "type": "functional, organism-based"}, "Plasmodium berghei [5]": {"tested_on": "Plasmodium berghei", "test": "Antimalarial activity against Plasmodium berghei ANKA expressing GFP infected in mouse assessed as mean survival days at 30 mg/kg, po administered at 6,[…],[…] and 72 hrs post-infection (reference value: 6 to 7 days)", "type": "functional"}, "Plasmodium berghei [6]": {"tested_on": "Plasmodium berghei", "test": "Antimalarial activity against Plasmodium berghei ANKA expressing GFP infected in mouse assessed as cure from infection at 30 mg/kg, po administered 24 hrs post-infection measured on day 30", "type": "functional, organism-based", "parameters": "dose 30 mg/kg"}, "Plasmodium berghei [7]": {"tested_on": "Plasmodium berghei", "test": "Antimalarial activity against Plasmodium berghei ANKA expressing GFP infected in mouse assessed as cure from infection at 50 mg/kg, po administered QD for 3 days measured on day 30", "type": "functional, organism-based", "parameters": "dose 50 mg/kg"}}, "note": "Activity calls are given as the source filed them. No cut-off for these calls is given here.", "data": [{"smiles": "Clc1ccc(C(Nc2ccnc3cc(Cl)ccc23)c2ccc(CN3CCNCC3)cc2)cc1", "note": "(racemic)", "values": [{"measurement": "Activity", "setting": "Heart [1]", "value": 233.54, "unit": "bpm"}, {"measurement": "Time", "setting": "Heart [2]", "value": 260.13, "unit": "ms"}, {"measurement": "Activity", "setting": "Salmonella typhimurium", "value": 27, "unit": "%"}, {"measurement": "IC50", "setting": "[3]", "value": 9.5, "unit": "µM"}, {"measurement": "Activity", "setting": "Heart [4]", "value": "Dose-dependent effect"}, {"measurement": "IC50", "setting": "Plasmodium falciparum", "value": 0.017, "unit": "µM"}, {"measurement": "MSD", "setting": "Plasmodium berghei [5]", "value": 30, "unit": "days"}, {"measurement": "Activity", "setting": "Plasmodium berghei [6]", "value": "inactive"}, {"measurement": "Activity", "setting": "Plasmodium berghei [7]", "value": "Active"}]}]}
